Entries after “also recorded” stand apart in the source; their conditions may differ.
What was measured:
Assay type in all cases: cell-based, Human
Hs746T cells [1] = test: in vitro scratch wound-healing (migration) assay; details: LY2157299 50 μM; wound width after 72 hours
Protocol: Migration assay: Hs746T and NCI-N87 cells were grown into monolayers in a culture medium containing 10% FBS and 1% antibiotics. When confluency reached 70%, the cell monolayers were scratched with a 100-μl pipette tip. After 72 hours, the wound width was measured and normalized by the wound width measured immediately after scratching. LY2157299 (50 μM) was administered to evaluate the effect of the TGF-β inhibitor on cell migration.

Hs746T cells [2] = test: invasion assay (HUVEC monolayer transwell); details: LY2157299 50 μM; 48 hours incubation
Protocol: Invasion assay: For the assay, 2×10^4 HUVEC cells were placed in a culture medium (M199) in a fibronectin-coated transwell, followed by coating the bottom of the transwell with 0.2% gelatin and cell culture for 48 hours until monolayer formation. Thereafter, 1×10^5/50 μl Hs746T and NCI-N87 cells containing FBS-free CellTracker™ (Molecular Probes, C2925) were separately added to the transwell. A culture medium containing 10% FBS was added to the lower chamber. After incubation for 48 hours, upper cells of the membrane were removed using a cotton swab. Cells on the lower membrane were lysed in 200 μl of a lysis buffer at room temperature for 2 hours to 3 hours. Fluorescence was measured with Ex/Em 492/517. To examine the effect of a TGF-β inhibitor on cell invasion ability, 50 μM of LY2157299 (AdooQ, California, USA) was administered.

Hs746T cells [3] = test: in vitro tumor spheroid formation assay; details: LY2157299 50 μM; 30 days of cell culture
Protocol: Tumor spheroid formation assay: Ten cells were cultured in 50 μl of DMEM/F12 (Gibco) supplemented with bFGF, EGF, B27, 10% FBS, and 1% antibiotics in a 96-well plate. After 30 days of cell culture, the number of tumor spheroids in each well was counted. In addition, LY2157299 (50 μM) was administered to examine the effect of the TGF-β inhibitor on tumor sphere formation.

Cc1cccc(-c2nn3c(c2-c2ccnc4ccc(C(N)=O)cc24)CCC3)n1 [LY2157299]
delayed; also recorded: suppression: wound-healing ability of Hs746T cells (Hs746T cells [1]) | invasion ability of Hs746T cells (Hs746T cells [2]) | 3D spheroid formation ability of Hs746T cells (Hs746T cells [3])

Reference: patent publication US11365450B2, “Group classification and prognosis prediction system based on biological characteristics of gastric cancer” (Novomics Co., Ltd., priority 2017, dated 2022)
